# Measured values from PMC8509676, “Residual Helicity at the Active Site of the Histidine Phosphocarrier, HPr, Modulates Binding Affinity to Its Natural Partners” (International Journal of Molecular Sciences, 2021).
# Experiments:
# Rsd^ec [1] = target: T1, Rsd^ec (Escherichia coli, UniProt P0AFX4); assay: Fluorescence titration, peptide/Rsd^ec binding
# T1 construct: His-tag; made in house; host or cells: E. coli C41
# Method: Spectra were collected at 25 °C on a Cary spectrofluorometer (Agilent, Madrid, Spain), with a Peltier temperature controller. The samples were prepared the day before and left overnight at 5 °C. Before measurements, the samples were incubated for 1 h at 25 °C. A quartz cell with a 1 cm path length (Hellma, Kruibeke, Belgium) was used. In all the experiments, the slit widths were equal to 5 nm for both the excitation and emission lights. Protein samples were excited at either 280 or 295 nm. The experiments were performed between 300 and 400 nm. The signal was acquired for 1 s, and the increment of wavelength was set to 1 nm. Appropriate blank corrections were made in all spectra. For the binding experiments, 3 µM of either protein (Rsd^ec or EIN^sc) and 15 µM of the corresponding peptide were mixed. The experiments in aqueous solution were acquired in Tris buffer (50 mM, pH 7.0).
# For the titration between either of the two proteins (Rsd^ec or EIN^sc) and the corresponding peptide, increasing amounts of the latter, in a concentration range of 0 to 30 µM, were added to a solution with a fixed concentration of each protein (3 µM). The experimental set-up was identical to that described above, including preparation of the samples the day before and their storage overnight at 5 °C. Before measurements, the samples were incubated for 1 h at 25 °C. The fluorescence of a blank solution containing only the corresponding peptide was subtracted for each data point. […] The Kd was determined by following the fluorescence at selected wavelengths and fitting experimental data to Equation (1). […] At all used concentrations, the fluorescence was corrected by the inner-filter effects.
# Rsd^ec [2] = target: T1, Rsd^ec; assay: Isothermal titration calorimetry (ITC), peptide/Rsd^ec binding; conditions: ITC, 25 °C, 50 mM Tris pH 7.0
# Method: (§1) The experimental set-up and data processing of ITC experiments has been described previously. Rsd^ec or EIN^sc (at 10–20 µM) were injected into the cell, and the peptides in the syringe (100–200 µM) in 50 mM of Tris buffer, pH 7.0. The temperature for all the experiments was 25 °C. Typically, each calorimetric titration consisted of performing 19 injections with 2 μL volume, with a time spacing of 150 s, while stirring at 750 rpm in an Auto-iTC200 high-sensitivity microcalorimeter (MicroCal, Malvern-Panalytical, Malvern, UK). The results were analysed by applying a model that considered a single binding site (assuming a 1:1 stoichiometry) for the peptide/EIN^sc or peptide/Rsd^ec interaction using a nonlinear least-squares regression analysis in Origin 7.0 (OriginLab, Northampton, MA, USA) with user-defined fitting routines.
# [3] = target: EIN^sc (N-terminal domain of EI^sc) (Streptomyces coelicolor, UniProt Q9KZP1); assay: biochemical; type: binding
# EIN^sc (N-terminal domain of EI^sc), sequence (Q9KZP1 1-230): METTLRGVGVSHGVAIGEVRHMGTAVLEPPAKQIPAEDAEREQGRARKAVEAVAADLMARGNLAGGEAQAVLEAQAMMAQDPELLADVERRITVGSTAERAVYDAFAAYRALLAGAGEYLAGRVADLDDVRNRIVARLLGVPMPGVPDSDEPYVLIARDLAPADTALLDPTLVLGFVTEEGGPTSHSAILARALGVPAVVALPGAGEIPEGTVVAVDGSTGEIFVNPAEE
# Method: as §1
# [4] = TFE titration followed by far-UV CD (disordered-helical two-state equilibrium); type: physicochemical
# Method: For experiments in the presence of TFE, the same set of experimental parameters was used. Cosolvent concentrations were indicated in percentage of volume (%). […] The peptide concentration for these experiments was 20 µM.
# [5] = TFE titration by far-UV CD, 20 µM peptide, two-state fit, fitting errors
# T1 sequence (P0AFX4 whole entry): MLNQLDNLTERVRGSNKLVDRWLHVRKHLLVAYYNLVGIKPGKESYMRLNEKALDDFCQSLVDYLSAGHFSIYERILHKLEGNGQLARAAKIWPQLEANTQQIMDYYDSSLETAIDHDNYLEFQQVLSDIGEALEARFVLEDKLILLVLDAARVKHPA
substance,measurement,setting,value
Ac-GWAEGLHARPASIFVRAATATG-NH2 [Wild-type],Kd,Rsd^ec [1],5 µM
same,"ΔH, Rsd^ec",Rsd^ec [2],1.3 ± 0.4 kcal/mol
same,Kd,[3],2.3 ± 0.4 µM
same,"ΔH, EIN^sc","[3]; ITC, 25 °C, 50 mM Tris pH 7.0",-0.8 ± 0.4 kcal/mol
same,[TFE]1/2,[4]; [5],23.2 ± 0.5 % (v/v)
same,m,[4]; [5],166 ± 23 cal/mol (% (v/v))
same,percentage of helical population (in parentheses),[4]; from ∆G^water assuming a two-state conformational equilibrium,0.10%
same,∆G^water,"[4]; product of m- and [TFE]1/2 values, error propagation",3.8 ± 0.5 kcal/mol
